Here are results for 60 molecules from PubChem BioAssay AID743070 (Broad Institute, 2013).

The structures appear in SMILES notation. Activity calls are given as the source filed them. No rule for the calls is given here.

This assay can be described thus: growth inhibition of wild-type Mtb, BioA inhibitor project, biotin-free medium, plate reader, dry powder (AID 743070). The conditions noted are these: M. tuberculosis wild type growth; for IC90: measured here: Mtb growth IC90.

What is called IC50 is the concentration at which inhibition is half-maximal. By IC90 is commonly meant the concentration at which the effect reaches the 90% level. A low value points to greater potency. With `CC(=O)c1ccc(N2CCN(C(=O)c3ccc4ncsc4c3)CC2)cc1`, the IC50 is 22.2 µM and the IC90 was more than 50 µM.

Regarding `COc1cccc(C(=O)N2CCN(c3ccc(C(C)=O)cc3)CC2)c1`, the IC50 was 50 µM and the IC90 is more than 50 µM.

Regarding `O=C(Nc1ccc2snnc2c1)N1CCN(c2ccccc2)CC1`, the concentration for half-maximal inhibition (IC50) is 3.2 µM and the 90% effect concentration (IC90) stood at 17.9 µM.

On to `O=C(c1ccc2c(c1)OCO2)N1CCN(Cc2ccccc2)CC1`, for which the IC50 was > 50 µM (inactive) and the IC90 was more than 50 µM.

Take `COc1ccc(C(=O)N2CCN(c3ccc(C(C)=O)cc3)CC2)cc1`: the IC50 was > 50 µM (inactive) and the 90% effect concentration (IC90) was more than 50 µM.

On to `O=C(O)CC/C(=C\c1ccccc1[N+](=O)[O-])c1nc2ccccc2s1`, for which the IC50 is 50 µM and the IC90 was more than 50 µM.

For `O=C(Nc1ccc(F)cc1)N1CCN(c2ccccc2)CC1`, the IC50 is 14.1 µM and the IC90 is more than 50 µM.

On to `COc1cc(/C=C/C(=O)Nc2cccnc2)cc(OC)c1OC`, for which the IC50 is 13.7 µM and the 90% effect concentration (IC90) was more than 50 µM.

In the case of `O=C(Nc1cccnc1)c1cnn2c(C(F)(F)F)cc(-c3ccccc3)nc12`, the IC50 is > 50 µM (inactive) and the IC90 was more than 50 µM.

In the case of `O=C(COc1ccc2ccc(=O)oc2c1)N1CCN(c2ccc(F)cc2)CC1`, the IC50 was 50 µM and the IC90 was more than 50 µM.

Turning to `O=C(Nc1cccnc1)c1cc2nc(-c3cccs3)cc(C(F)(F)F)n2n1`, the IC50 was > 50 µM (inactive) and the 90% effect concentration (IC90) is more than 50 µM.

`O=C(Nc1ccc2snnc2c1)N1CCCCC1`: the IC50 was 50 µM and the IC90 is more than 50 µM.

As to `CC(C)(C)c1ccc(C(=O)N2CCN(c3ccc4c(c3)OCO4)CC2)cc1`, the IC50 is 14.9 µM and the IC90 is more than 50 µM.

Consider `Cc1ccccc1/C=C(\CCC(=O)O)c1nc2ccccc2s1`, for which the concentration for half-maximal inhibition (IC50) was 8.3 µM and the concentration for an effect of 90% (IC90) turned out to be 44.1 µM.

As for `CC(=O)c1ccc(N2CCN(C(=O)c3ccc4c(c3)OCCO4)CC2)cc1`, the IC50 was > 50 µM (inactive) and the concentration for an effect of 90% (IC90) was more than 50 µM.

For the molecule `CCOC(=O)N1CCN(C(=O)Nc2ccc3snnc3c2)CC1`, the half-maximal inhibitory concentration (IC50) is 14.6 µM and the IC90 is more than 50 µM.

On to `O=C(Nc1ccc2[nH]ccc2c1)N1CCN(c2ccccc2)CC1`, for which the IC50 is 7 µM and the 90% effect concentration (IC90) is more than 50 µM.

In the case of `CCc1ccc(C(=O)N2CCN(Cc3ccc4c(c3)OCO4)CC2)cc1`, the half-maximal inhibitory concentration (IC50) is 8.5 µM and the IC90 is more than 50 µM.

For `CCN(CC)c1ccc2cc(C(=O)c3cccs3)c(=O)oc2c1`, the IC50 is 3.8 µM and the 90% effect concentration (IC90) was determined as 20.7 µM.

With `Cc1nc2ccc(NC(=O)N3CCN(c4ccccc4)CC3)cc2s1`, the IC50 was 2.1 µM and the concentration for an effect of 90% (IC90) amounted to 6.8 µM.

For `Cc1ccc(/C=C(\CCC(=O)O)c2nc3ccccc3s2)cc1`, the IC50 is 2 µM and the 90% effect concentration (IC90) worked out at 4.8 µM.

Regarding `CC(=O)c1ccc(N2CCN(C(=O)c3ccc(F)cc3)CC2)cc1`, the IC50 is 50 µM and the IC90 was more than 50 µM.

On to `CC(=O)c1ccc(N2CCN(C(=O)c3ccc(C)cc3)CC2)cc1`, for which the IC50 was > 50 µM (inactive) and the IC90 was more than 50 µM.

With `Cc1nc2cc(NC(=O)N3CCN(c4ccccc4)CC3)ccc2o1`, the concentration for half-maximal inhibition (IC50) is 50 µM and the IC90 was more than 50 µM.

As for `O=C(Nc1ccccc1)N1CCN(c2ccccc2)CC1`, the IC50 is 6.9 µM and the IC90 is more than 50 µM.

For `CC(=O)c1ccc(N2CCN(C(=O)c3ccc4c(c3)OCO4)CC2)cc1`, the concentration for half-maximal inhibition (IC50) was 5 µM and the IC90 came to 26.3 µM.

As to `CC(=O)c1ccc(N2CCN(C(=O)c3ccc(Br)cc3)CC2)c(F)c1`, the 50% inhibitory concentration (IC50) was 10.3 µM and the IC90 was more than 50 µM.

For the molecule `COc1ccc(NC(=O)N2CCN(c3ccccc3)CC2)cc1`, the IC50 was 50 µM and the 90% effect concentration (IC90) is more than 50 µM.

In the case of `COc1ccc(N2CCN(C(=O)c3ccc4c(c3)OCO4)CC2)cc1`, the IC50 is 9.7 µM and the IC90 is more than 50 µM.

In the case of `Cc1cc(C)n2nc(C(=O)Nc3cccnc3)nc2n1`, the IC50 was > 50 µM (inactive) and the 90% effect concentration (IC90) is more than 50 µM.

On to `O=C(c1ccc2c(c1)OCO2)N1CCN(c2ccc(F)cc2)CC1`, for which the half-inhibitory concentration (IC50) is 22 µM and the IC90 was more than 50 µM.

As for `O=C(Nc1ccc2snnc2c1)N1CCOCC1`, the IC50 is > 50 µM (inactive) and the IC90 was more than 50 µM.

`CC(=O)c1ccc(N2CCN(Cc3ccc4c(c3)OCO4)CC2)cc1`: the IC50 is 31.2 µM and the IC90 was more than 50 µM.

Consider `COc1cccc(NC(=O)CCC2CCN(C(=O)c3ccc(C(C)=O)s3)CC2)c1`, for which the IC50 was 10.7 µM and the 90% effect concentration (IC90) was more than 50 µM.

On to `Cc1ccc(/C=C(\CCC(=O)O)c2nc3ccccc3s2)cc1[N+](=O)[O-]`, for which the IC50 was 1.1 µM and the 90% effect concentration (IC90) was 2.5 µM.

Regarding `CC(=O)c1ccc(N2CCN(C(=O)c3ccc(Cl)cc3)CC2)cc1`, the IC50 was > 50 µM (inactive) and the 90% effect concentration (IC90) was more than 50 µM.

Turning to `O=C(Nc1cccc(F)c1)N1CCN(c2ccccc2)CC1`, the IC50 is 8.2 µM and the concentration for an effect of 90% (IC90) was more than 50 µM.

Consider `COc1ccc(-c2cc(C(F)(F)F)n3nc(C(=O)Nc4cccnc4)cc3n2)cc1`, for which the IC50 was 2.7 µM and the 90% effect concentration (IC90) was more than 50 µM.

As to `Cc1ccc(/C=C(\CCCC(=O)O)c2nc3ccccc3s2)cc1[N+](=O)[O-]`, the IC50 was 8.4 µM and the IC90 is more than 63.3 µM.

`CC(=O)c1ccc(N2CCN(C(=O)c3cccc(Cl)c3)CC2)cc1`: the IC50 is 7.5 µM and the IC90 stood at 27.5 µM.

Turning to `Cc1cccc(/C=C(\CCC(=O)O)c2nc3ccccc3s2)c1`, the IC50 was 3.1 µM and the 90% effect concentration (IC90) came to 11 µM.

On to `Cc1ccc(NC(=O)N2CCN(c3ccccc3)CC2)cc1`, for which the IC50 is 10.3 µM and the IC90 is more than 50 µM.

As for `CCc1ccc(N2CCN(C(=O)c3ccc4c(c3)OCO4)CC2)cc1`, the IC50 was 9.6 µM and the IC90 is more than 50 µM.

Regarding `Cc1ccc(/C=C(\CC(=O)O)c2nc3ccccc3s2)cc1[N+](=O)[O-]`, the concentration for half-maximal inhibition (IC50) was 6.8 µM and the concentration for an effect of 90% (IC90) is more than 50 µM.

For `O=C(Nc1cccnc1)c1cnn2c(C(F)F)cc(C3CC3)nc12`, the IC50 was > 50 µM (inactive) and the 90% effect concentration (IC90) is more than 50 µM.

Consider `COC(=O)c1c(C(=O)OC)c(-c2cccc(F)c2)n2c1CS(=O)C2` (stereo not given), for which the concentration for half-maximal inhibition (IC50) is 15.9 µM and the IC90 was more than 50 µM.

On to `O=C(Nc1cccc(Cl)c1)N1CCN(c2ccccc2)CC1`, for which the IC50 is 5 µM and the concentration for an effect of 90% (IC90) is more than 50 µM.

Consider `CC(=O)c1ccc(N2CCN(C(=O)c3ccccc3)CC2)cc1`, for which the IC50 was > 50 µM (inactive) and the concentration for an effect of 90% (IC90) was more than 50 µM.

As to `O=C(Nc1ccc(Cl)cc1)c1cc2nc(C3CC3)cc(C(F)(F)F)n2n1`, the half-maximal inhibitory concentration (IC50) was 50 µM and the 90% effect concentration (IC90) was more than 50 µM.

In the case of `CC(=O)c1ccc(N2CCN(C(=O)c3cccnc3)CC2)cc1`, the IC50 is > 50 µM (inactive) and the IC90 is more than 50 µM.

As for `CC(=O)c1ccc(N2CCN(C(=O)c3cccc(F)c3)CC2)cc1`, the IC50 is > 50 µM (inactive) and the concentration for an effect of 90% (IC90) was more than 50 µM.

For `Cc1cc(C)n2nc(C(=O)Nc3cccnc3)cc2n1`, the IC50 was 21.8 µM and the 90% effect concentration (IC90) was more than 50 µM.

Turning to `O=C(Nc1cccnc1)N1CCN(c2ccccc2)CC1`, the IC50 was > 50 µM (inactive) and the IC90 was more than 50 µM.

For `O=C(Nc1ccncc1)c1cc2nc(C3CC3)cc(C(F)F)n2n1`, the concentration for half-maximal inhibition (IC50) was 50 µM and the IC90 was more than 50 µM.

For `O=C(c1ccc2c(c1)OCO2)N1CCN(c2ccccc2)CC1`, the IC50 is 23.2 µM and the IC90 was more than 50 µM.

For the molecule `O=C(O)CC/C(=C\c1ccc([N+](=O)[O-])cc1)c1nc2ccccc2s1`, the 50% inhibitory concentration (IC50) was 8.9 µM and the IC90 was found to be 34.4 µM.

With `Cc1ccc(-c2cc(C(F)(F)F)n3nc(C(=O)Nc4cccnc4)cc3n2)cc1`, the IC50 is > 50 µM (inactive) and the IC90 was more than 50 µM.

As for `O=C(c1ccc2c(c1)OCO2)N1CCN(c2ccc(Cl)cc2)CC1`, the IC50 was 11.2 µM and the 90% effect concentration (IC90) amounted to 49.2 µM.

On to `COc1cccc(NC(=O)N2CCN(c3ccccc3)CC2)c1`, for which the IC50 was 50 µM and the IC90 was more than 50 µM.

For `O=C(Nc1ccc(Cl)c(-c2nc3ccccc3[nH]2)c1)c1cccnc1`, the IC50 was 7.4 µM and the concentration for an effect of 90% (IC90) worked out at 46 µM.
